Experiments:
[1] = target: Tyrosine-protein kinase BTK (Homo sapiens, UniProt Q06187); assay: Inhibition of BTK (unknown origin)
[2] = target: Aurora kinase C (Homo sapiens, UniProt Q9UQB9); assay: Inhibition of AurC (unknown origin)
[3] = tested on: Rattus norvegicus; assay: Inhibition of allograft rejection in Lewis rat vascularized heterotopic cardiac transplantation model using ACI rat as cardiac donor assessed as mean survival time by measuring cardiac allograft function by daily palpation for 28 days at 10 mg/kg, po administered beginning on day of operation once daily for 14 consecutive days (reference value: 5 days); format: functional
[4] = target: Dual specificity mitogen-activated protein kinase kinase 1 (Homo sapiens, UniProt Q02750); assay: Inhibition of MEK1 (unknown origin)
Chain of Dual specificity mitogen-activated protein kinase kinase 1 (Q02750 whole entry): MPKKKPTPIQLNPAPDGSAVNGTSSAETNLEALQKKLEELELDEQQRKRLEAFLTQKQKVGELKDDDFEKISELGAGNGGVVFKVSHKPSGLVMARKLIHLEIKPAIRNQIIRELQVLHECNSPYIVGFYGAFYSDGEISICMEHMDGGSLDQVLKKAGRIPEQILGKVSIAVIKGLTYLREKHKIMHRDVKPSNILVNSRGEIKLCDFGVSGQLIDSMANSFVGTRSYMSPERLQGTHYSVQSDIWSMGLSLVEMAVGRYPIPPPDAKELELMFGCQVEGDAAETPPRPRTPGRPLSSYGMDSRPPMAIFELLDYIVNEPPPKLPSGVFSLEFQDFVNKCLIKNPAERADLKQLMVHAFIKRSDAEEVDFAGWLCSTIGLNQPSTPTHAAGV

[5] = Intrinsic clearance in beagle dog liver microsomes at 0.2 uM in presence of NADPH generating system by LC/MS/MS method; format: ADME, Canis lupus familiaris; conditions: read-out: CLH
[6] = target: Serine/threonine-protein kinase Chk1 (Homo sapiens, UniProt O14757); assay: Inhibition of CHK1 (unknown origin)
Chain of Serine/threonine-protein kinase Chk1 (O14757 whole entry): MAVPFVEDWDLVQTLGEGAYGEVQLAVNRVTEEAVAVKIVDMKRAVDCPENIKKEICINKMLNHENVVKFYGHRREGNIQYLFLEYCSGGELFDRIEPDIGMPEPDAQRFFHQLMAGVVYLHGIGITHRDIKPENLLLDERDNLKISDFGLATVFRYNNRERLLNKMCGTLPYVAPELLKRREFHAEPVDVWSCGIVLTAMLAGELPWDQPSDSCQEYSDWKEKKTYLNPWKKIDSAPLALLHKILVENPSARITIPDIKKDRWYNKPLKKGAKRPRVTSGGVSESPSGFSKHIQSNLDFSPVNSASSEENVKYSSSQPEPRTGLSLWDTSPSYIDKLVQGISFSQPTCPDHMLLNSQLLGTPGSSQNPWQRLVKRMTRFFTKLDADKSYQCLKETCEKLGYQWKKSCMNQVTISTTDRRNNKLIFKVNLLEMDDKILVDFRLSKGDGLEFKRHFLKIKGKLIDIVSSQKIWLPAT

[7] = AUC (0 to 24 hrs) in cynomolgus monkey at 1 mg/kg, iv by LC/MS/MS method; format: ADME, organism-based, Macaca fascicularis; design: time < 24 hr, dose 1 mg/kg, route intravenous; conditions: in vivo
[8] = target: RAF proto-oncogene serine/threonine-protein kinase (Homo sapiens, UniProt P04049); assay: Inhibition of RAF1 (unknown origin)
[9] = target: Tyrosine-protein kinase ZAP-70 (Homo sapiens, UniProt P43403); assay: Inhibition of ZAP70 (unknown origin)
Chain of Tyrosine-protein kinase ZAP-70 (P43403 whole entry): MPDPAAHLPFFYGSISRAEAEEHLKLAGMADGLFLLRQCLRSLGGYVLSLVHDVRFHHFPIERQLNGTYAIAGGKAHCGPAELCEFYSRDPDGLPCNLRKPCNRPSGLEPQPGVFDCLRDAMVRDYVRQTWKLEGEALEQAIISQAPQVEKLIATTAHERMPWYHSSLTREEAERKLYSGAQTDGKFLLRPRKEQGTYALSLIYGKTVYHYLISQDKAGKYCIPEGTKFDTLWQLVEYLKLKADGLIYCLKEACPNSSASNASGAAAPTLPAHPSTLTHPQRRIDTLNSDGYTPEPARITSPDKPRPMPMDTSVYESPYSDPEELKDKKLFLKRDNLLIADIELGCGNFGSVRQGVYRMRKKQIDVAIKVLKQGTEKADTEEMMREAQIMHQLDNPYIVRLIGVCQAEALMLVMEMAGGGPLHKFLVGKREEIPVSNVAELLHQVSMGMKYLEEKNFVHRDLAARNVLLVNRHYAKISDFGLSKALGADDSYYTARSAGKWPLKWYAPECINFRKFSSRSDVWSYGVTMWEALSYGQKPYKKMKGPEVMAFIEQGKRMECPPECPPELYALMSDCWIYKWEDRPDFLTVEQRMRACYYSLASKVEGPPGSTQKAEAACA

[10] = Intrinsic clearance in human liver microsomes at 0.2 uM in presence of NADPH generating system by LC/MS/MS method; format: ADME; conditions: read-out: CLH
[11] = target: Tyrosine-protein kinase JAK1 (Homo sapiens, UniProt P23458); assay: Inhibition of human JAK1 kinase domain using biotin-Lyn-substrate-2 as substrate incubated for 1 hr by ELISA method
[12] = target: Mitogen-activated protein kinase 10 (Homo sapiens, UniProt P53779); assay: Inhibition of JNK3 (unknown origin)
[13] = target: Mitogen-activated protein kinase kinase kinase 9 (Homo sapiens, UniProt P80192); assay: Inhibition of MLK1 (unknown origin)
Chain of Mitogen-activated protein kinase kinase kinase 9 (P80192 whole entry): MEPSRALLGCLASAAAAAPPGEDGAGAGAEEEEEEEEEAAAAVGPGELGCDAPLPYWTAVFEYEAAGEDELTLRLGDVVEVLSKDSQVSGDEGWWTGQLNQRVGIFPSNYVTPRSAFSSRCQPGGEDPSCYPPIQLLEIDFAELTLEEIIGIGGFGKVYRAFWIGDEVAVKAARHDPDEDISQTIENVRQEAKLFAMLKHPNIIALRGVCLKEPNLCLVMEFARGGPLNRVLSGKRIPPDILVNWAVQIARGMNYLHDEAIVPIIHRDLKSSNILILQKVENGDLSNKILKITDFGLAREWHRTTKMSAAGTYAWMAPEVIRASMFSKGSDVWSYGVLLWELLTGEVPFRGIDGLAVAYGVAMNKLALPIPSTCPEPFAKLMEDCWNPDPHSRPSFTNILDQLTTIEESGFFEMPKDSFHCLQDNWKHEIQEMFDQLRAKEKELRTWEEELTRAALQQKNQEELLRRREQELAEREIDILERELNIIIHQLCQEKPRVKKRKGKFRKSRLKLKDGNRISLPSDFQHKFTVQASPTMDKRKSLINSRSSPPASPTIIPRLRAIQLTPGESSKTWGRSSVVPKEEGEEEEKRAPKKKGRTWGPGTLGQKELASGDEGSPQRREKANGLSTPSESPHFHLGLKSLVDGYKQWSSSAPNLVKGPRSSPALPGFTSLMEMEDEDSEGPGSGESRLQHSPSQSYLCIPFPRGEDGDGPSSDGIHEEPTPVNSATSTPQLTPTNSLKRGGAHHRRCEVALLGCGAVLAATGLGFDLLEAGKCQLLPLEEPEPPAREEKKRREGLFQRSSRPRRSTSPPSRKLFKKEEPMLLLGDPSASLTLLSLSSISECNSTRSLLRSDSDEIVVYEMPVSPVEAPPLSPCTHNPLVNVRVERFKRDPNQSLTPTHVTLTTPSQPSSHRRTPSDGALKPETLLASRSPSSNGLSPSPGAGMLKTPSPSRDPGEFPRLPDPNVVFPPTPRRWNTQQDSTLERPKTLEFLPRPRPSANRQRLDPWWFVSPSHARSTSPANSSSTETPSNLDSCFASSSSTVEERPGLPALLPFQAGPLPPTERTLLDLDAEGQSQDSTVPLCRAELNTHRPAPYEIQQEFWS

[14] = target: Tyrosine-protein kinase ABL1 (Homo sapiens, UniProt P00519); assay: Inhibition of ABL (unknown origin)
Chain of Tyrosine-protein kinase ABL1 (P00519 whole entry): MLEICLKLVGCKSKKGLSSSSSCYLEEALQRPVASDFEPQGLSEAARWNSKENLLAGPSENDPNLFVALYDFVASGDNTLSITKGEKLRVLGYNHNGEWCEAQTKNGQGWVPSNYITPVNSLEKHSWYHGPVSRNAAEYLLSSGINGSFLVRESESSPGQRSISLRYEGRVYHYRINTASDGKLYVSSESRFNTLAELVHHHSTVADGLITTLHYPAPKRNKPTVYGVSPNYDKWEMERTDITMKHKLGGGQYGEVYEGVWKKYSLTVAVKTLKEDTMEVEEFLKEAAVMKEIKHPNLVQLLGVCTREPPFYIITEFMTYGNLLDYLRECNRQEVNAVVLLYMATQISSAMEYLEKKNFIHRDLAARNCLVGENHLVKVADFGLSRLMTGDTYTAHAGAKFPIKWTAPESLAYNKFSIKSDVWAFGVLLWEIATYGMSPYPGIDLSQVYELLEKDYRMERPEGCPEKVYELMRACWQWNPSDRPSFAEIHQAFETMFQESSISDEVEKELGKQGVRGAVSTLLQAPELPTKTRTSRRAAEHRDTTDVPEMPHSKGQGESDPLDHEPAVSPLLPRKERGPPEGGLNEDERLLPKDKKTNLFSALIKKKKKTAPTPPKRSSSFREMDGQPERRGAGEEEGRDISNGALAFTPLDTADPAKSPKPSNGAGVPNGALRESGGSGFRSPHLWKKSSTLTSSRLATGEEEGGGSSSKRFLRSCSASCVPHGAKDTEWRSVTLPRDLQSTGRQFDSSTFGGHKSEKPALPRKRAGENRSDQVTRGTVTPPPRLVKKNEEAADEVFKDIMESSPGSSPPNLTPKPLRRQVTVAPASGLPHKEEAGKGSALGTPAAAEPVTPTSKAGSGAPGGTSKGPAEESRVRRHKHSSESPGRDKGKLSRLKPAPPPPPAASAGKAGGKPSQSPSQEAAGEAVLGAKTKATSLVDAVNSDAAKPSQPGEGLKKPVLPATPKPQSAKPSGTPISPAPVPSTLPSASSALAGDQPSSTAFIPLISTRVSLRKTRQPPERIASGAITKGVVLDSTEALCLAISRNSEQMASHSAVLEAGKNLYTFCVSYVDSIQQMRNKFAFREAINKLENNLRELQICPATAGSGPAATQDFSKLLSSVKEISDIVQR

[15] = Half life in beagle dog at 1 mg/kg, iv by LC/MS/MS method; format: ADME, organism-based, Canis lupus familiaris; conditions: in vivo
[16] = target: Protein kinase C alpha type (Homo sapiens, UniProt P17252); assay: Inhibition of PKCalpha (unknown origin)
[17] = target: Epidermal growth factor receptor (Homo sapiens, UniProt P00533); assay: Inhibition of EGFR (unknown origin)
[18] = AUC (0 to 24 hrs) in Sprague-Dawley rat at 3 mg/kg, po by LC/MS/MS method; format: ADME, organism-based; design: dose 3 mg/kg, time < 24 hr, route oral; conditions: in vivo

Chain of Tyrosine-protein kinase BTK (Q06187 whole entry): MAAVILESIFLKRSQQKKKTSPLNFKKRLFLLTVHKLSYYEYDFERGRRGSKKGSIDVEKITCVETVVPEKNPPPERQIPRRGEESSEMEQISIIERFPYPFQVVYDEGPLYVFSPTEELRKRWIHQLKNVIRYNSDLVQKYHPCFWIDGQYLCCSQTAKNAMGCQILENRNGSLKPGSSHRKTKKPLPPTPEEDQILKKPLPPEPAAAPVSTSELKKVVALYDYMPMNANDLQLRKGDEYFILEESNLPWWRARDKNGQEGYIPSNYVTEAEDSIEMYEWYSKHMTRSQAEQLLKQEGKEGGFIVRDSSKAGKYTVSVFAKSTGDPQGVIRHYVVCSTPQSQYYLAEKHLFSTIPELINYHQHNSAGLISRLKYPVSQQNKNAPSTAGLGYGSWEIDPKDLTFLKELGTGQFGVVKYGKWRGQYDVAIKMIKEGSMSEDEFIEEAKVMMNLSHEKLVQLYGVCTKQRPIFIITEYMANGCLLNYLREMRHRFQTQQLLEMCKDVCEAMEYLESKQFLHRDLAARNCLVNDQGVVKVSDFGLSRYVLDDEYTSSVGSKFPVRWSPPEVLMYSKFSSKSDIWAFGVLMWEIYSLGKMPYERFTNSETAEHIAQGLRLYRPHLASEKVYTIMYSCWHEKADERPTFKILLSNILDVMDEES

Question: What does the source list for `N#Cc1ccc(N2CC[C@@H](Nc3c(C(N)=O)cnc4[nH]ccc34)[C@@H](F)C2)nc1`?
Answer: IC50 [1]: > 1000 nM; IC50 [2]: > 1000 nM; MST [3]: 11.5 days; IC50 [4]: > 1000 nM; CLint scaled at 0.2 µM [5]: 18.8 mL/min/kg; IC50 [6]: 950 nM; AUC(0-t) at 24 h [7]: 4490 ng·h/mL; IC50 [8]: > 1000 nM; IC50 [9]: > 1000 nM; CLint scaled at 0.2 µM [10]: 4.8 mL/min/kg; IC50 [11]: 4.1 nM; IC50 [12]: 560 nM; IC50 [13]: 51 nM; IC50 [14]: > 1000 nM; half-life [15]: 4.2 h; IC50 [16]: 130 nM; IC50 [17]: > 1000 nM; AUC(0-t) at 24 h [18]: 6780 ng·h/mL

Reference: ChEMBL document CHEMBL3593212, “Synthesis and evaluation of novel 1H-pyrrolo[2,3-b]pyridine-5-carboxamide derivatives as potent and orally efficacious immunomodulators targeting JAK3” (Bioorg Med Chem, 2015)
